Experimental findings from ChEMBL document CHEMBL5678818, “Discovery of potent SOS1 inhibitors that block RAS activation via disruption of the RAS-SOS1 interaction” (Proc Natl Acad Sci U S A, 2019) are described below.

Molecules are shown by their SMILES.

For experiment [1], the target named is Ribosomal protein S6 kinase alpha-2 (Homo sapiens) (UniProt Q15349). Nature of the experiment: Inhibition of C-terminal RSK3 […] domain 2 (unknown origin) assessed as residual activity at 100 nM by KINOMEscan analysis relative to control.
Chain of Ribosomal protein S6 kinase alpha-2 (Homo sapiens) (Q15349 whole entry): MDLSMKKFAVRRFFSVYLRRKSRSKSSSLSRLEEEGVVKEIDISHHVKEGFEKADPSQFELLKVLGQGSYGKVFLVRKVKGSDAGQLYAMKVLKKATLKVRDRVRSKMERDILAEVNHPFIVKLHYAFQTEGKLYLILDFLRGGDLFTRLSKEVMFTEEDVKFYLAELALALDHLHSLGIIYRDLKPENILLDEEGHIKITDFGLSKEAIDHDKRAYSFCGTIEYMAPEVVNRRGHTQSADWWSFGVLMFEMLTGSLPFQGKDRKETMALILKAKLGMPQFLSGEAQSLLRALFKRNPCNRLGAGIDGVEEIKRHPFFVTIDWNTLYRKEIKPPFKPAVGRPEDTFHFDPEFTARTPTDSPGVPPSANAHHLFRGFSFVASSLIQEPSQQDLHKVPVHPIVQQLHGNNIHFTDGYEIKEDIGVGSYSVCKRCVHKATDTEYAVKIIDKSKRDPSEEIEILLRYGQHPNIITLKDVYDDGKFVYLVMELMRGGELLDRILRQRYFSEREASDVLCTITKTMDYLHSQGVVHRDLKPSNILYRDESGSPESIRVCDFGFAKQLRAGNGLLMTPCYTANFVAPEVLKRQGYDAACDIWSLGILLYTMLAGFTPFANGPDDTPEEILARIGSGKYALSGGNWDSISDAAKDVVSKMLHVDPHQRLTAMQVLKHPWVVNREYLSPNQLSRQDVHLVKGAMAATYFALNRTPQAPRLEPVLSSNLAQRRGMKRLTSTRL
Experiment [2] concerns the target TRAF2 and NCK-interacting protein kinase (Homo sapiens) (UniProt Q9UKE5). The experiment can be described thus: Inhibition of TNIK (unknown origin) assessed as residual activity at 100 nM by KINOMEscan analysis relative to control.
Experiment [3] has as its target T1, Mitogen-activated protein kinase kinase kinase kinase 3 (Homo sapiens) (UniProt Q8IVH8).
T1 sequence (whole entry): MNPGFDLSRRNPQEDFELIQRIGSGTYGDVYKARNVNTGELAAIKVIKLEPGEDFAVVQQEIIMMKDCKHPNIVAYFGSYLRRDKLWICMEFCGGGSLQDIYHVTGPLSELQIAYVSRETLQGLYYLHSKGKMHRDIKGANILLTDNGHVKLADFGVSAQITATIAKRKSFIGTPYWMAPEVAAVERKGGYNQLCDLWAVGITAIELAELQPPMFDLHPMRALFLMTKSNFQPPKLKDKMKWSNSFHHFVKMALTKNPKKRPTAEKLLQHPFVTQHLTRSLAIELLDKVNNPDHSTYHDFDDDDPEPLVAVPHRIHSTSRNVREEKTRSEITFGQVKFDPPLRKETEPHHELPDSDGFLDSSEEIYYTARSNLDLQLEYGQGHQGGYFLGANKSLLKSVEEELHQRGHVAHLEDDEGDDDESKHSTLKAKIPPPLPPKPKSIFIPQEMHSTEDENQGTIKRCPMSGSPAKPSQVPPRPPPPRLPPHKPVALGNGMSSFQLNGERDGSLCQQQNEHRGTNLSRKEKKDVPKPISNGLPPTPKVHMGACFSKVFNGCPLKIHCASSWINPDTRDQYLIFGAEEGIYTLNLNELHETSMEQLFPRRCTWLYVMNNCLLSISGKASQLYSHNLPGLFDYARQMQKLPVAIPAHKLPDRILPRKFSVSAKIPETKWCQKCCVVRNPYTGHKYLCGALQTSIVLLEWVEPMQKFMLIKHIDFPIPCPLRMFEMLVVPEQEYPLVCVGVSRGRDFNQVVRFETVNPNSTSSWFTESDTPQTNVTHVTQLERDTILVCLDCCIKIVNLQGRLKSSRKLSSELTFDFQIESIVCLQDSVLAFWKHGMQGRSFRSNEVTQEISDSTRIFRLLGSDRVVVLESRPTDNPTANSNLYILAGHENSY
Nature of the experiment: Inhibition of MAP4K3 (unknown origin) assessed as residual activity at 100 nM by KINOMEscan analysis relative to control.

Experiment [4] addresses Ribosomal protein S6 kinase alpha-1 (Homo sapiens) (UniProt Q15418). Nature of the experiment: Inhibition of C-terminal RSK1 kinetic domain 2 (unknown origin) assessed as residual activity at 100 nM by KINOMEscan analysis relative to control.
The target of experiment [5] is T2, Ephrin type-B receptor 6 (Homo sapiens) (UniProt O15197).
T2 sequence (whole entry): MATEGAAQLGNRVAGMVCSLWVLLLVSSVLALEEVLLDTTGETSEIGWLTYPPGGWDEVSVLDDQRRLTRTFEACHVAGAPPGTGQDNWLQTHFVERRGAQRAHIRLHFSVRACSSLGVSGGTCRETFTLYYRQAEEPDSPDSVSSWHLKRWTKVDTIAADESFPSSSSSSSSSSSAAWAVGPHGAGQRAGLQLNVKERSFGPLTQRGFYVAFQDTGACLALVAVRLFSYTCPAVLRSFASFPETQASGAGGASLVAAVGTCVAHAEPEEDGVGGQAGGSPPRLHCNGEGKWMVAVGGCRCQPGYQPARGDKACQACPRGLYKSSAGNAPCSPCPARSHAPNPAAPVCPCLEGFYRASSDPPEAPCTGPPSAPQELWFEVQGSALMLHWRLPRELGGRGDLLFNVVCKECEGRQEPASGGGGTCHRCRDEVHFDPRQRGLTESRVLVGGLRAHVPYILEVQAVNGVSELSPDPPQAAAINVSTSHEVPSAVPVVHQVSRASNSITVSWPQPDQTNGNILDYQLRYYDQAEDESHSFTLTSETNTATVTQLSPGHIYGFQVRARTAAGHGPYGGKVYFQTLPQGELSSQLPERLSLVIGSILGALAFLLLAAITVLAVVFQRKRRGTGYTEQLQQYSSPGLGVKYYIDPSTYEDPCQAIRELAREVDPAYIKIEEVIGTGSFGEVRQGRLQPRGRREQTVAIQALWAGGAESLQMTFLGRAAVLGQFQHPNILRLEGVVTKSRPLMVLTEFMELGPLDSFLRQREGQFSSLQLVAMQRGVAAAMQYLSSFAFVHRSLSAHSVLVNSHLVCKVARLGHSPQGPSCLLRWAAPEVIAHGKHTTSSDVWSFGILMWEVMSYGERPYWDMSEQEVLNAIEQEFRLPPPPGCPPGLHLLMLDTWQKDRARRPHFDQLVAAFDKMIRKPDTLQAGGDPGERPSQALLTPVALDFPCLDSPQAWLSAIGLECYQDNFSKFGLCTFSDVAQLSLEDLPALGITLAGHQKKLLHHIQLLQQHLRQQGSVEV
Nature of the experiment: Inhibition of EPHB6 (unknown origin) assessed as residual activity at 100 nM by KINOMEscan analysis relative to control.

Experiment [6] addresses T3, Rhodopsin kinase GRK1 (Homo sapiens) (UniProt Q15835).
T3 sequence (whole entry): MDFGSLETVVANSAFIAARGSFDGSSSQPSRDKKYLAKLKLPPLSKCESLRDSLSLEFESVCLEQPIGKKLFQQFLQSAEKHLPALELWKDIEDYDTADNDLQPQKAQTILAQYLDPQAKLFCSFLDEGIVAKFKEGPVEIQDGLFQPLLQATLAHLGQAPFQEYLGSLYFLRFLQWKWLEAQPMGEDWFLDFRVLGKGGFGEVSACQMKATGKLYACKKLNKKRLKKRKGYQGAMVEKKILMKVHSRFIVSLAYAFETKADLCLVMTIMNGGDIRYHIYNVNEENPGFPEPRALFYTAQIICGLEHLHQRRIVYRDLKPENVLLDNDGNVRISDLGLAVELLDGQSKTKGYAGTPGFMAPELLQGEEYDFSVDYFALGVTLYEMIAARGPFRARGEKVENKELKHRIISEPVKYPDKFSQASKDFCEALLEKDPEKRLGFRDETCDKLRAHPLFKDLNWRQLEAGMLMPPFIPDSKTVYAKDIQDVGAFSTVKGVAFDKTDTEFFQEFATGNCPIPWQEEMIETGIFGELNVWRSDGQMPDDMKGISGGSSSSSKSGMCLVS
Nature of the experiment: Inhibition of GRK1 (unknown origin) assessed as residual activity at 100 nM by KINOMEscan analysis relative to control.

Experiment [7] concerns the target G protein-coupled receptor kinase 3 (Homo sapiens) (UniProt P35626). The experiment can be described thus: Inhibition of GRK3 (unknown origin) assessed as residual activity at 1000 nM by KINOMEscan analysis relative to control.

Chain of TRAF2 and NCK-interacting protein kinase (Homo sapiens) (Q9UKE5 whole entry, looked up): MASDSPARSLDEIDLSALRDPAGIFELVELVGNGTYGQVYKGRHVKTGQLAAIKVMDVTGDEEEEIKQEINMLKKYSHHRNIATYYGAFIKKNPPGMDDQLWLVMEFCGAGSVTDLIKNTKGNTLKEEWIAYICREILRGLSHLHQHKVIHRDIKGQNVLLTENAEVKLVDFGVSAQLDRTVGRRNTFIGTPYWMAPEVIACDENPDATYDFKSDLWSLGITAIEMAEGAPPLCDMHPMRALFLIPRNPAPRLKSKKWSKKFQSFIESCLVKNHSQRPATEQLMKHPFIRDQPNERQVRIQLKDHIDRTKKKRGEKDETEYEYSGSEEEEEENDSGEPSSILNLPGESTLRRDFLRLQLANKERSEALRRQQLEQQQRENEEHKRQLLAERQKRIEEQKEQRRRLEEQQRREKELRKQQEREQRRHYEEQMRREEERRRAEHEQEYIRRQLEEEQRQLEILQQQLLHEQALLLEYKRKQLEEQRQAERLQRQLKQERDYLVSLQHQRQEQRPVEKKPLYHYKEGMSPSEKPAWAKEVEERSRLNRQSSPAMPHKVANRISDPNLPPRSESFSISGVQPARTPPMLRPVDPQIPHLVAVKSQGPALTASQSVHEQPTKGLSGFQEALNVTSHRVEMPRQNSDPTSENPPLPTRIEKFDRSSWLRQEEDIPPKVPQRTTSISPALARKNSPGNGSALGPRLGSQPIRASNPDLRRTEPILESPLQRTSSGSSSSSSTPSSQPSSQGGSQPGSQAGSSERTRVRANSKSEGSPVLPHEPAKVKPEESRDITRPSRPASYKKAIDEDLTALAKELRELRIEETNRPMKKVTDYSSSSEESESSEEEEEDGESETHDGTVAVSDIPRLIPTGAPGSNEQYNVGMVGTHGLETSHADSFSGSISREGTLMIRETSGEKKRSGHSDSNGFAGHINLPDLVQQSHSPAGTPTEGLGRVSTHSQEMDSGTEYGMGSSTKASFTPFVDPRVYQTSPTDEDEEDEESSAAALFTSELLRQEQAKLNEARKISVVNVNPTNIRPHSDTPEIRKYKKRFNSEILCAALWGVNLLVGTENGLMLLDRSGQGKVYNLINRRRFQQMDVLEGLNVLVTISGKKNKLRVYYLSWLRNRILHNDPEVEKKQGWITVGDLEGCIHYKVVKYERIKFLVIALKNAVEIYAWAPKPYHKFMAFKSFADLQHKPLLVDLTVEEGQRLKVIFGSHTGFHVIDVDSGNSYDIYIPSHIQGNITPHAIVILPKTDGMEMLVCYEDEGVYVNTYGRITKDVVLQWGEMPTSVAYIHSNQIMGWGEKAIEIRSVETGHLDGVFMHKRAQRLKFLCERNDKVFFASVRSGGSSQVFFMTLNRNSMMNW
Chain of G protein-coupled receptor kinase 3 (Homo sapiens) (P35626 whole entry): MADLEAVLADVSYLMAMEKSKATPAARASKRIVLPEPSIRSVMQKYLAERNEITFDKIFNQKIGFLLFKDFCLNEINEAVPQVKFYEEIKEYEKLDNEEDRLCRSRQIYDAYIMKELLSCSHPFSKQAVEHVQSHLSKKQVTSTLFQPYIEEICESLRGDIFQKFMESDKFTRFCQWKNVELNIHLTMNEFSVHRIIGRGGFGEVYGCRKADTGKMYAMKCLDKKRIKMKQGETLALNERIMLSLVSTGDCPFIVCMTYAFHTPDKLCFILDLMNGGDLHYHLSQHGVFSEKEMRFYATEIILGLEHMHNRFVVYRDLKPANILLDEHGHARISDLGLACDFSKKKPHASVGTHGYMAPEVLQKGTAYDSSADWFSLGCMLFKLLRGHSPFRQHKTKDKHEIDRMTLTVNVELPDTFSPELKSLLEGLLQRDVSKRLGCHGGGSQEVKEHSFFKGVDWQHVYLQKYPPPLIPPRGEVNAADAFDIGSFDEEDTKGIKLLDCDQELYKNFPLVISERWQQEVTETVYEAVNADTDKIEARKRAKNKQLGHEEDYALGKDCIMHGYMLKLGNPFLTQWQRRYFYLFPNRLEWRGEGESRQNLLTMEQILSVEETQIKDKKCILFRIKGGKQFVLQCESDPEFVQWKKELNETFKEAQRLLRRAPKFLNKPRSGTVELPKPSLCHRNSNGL
Chain of Ribosomal protein S6 kinase alpha-1 (Homo sapiens) (Q15418 whole entry, the tested form may be a part): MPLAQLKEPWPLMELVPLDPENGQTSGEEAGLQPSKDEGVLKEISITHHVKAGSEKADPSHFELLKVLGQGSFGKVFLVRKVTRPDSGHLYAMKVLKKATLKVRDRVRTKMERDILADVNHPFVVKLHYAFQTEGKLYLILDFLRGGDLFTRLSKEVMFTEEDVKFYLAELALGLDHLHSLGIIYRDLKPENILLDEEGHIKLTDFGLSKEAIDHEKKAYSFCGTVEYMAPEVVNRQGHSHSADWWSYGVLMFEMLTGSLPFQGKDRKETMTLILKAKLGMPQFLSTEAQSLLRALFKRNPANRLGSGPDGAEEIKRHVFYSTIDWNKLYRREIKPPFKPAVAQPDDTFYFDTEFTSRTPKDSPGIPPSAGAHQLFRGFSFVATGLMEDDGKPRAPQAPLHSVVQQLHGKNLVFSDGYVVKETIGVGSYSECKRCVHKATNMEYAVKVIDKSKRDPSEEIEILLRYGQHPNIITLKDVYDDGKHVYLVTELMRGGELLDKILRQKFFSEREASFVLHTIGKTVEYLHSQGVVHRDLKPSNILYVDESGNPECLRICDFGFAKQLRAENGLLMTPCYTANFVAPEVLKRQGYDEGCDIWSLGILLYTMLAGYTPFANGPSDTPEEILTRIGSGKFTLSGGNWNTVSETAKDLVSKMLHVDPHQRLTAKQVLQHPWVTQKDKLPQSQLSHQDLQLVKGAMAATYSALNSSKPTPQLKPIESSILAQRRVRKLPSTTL

As to `COc1cc2ncnc(N[C@H](C)c3cccc4ccccc34)c2cc1OC`, the Activity in experiment [1] is 91%; in experiment [2], 100%; in experiment [3] it was 85%; in experiment [4], 86%; in experiment [5] it was 77%; in experiment [6] it was 96%.
Consider `COc1cc2nc(C)nc(N[C@H](C)c3cccc(-c4cn[nH]c4)c3)c2cc1OC`, for which the Activity in experiment [7] was found to be 76%.
